Like-named read-outs stand apart in the source and are kept apart here.
Assay: Equilibrium aqueous solubility under pH controlled conditions
Type: physicochemical

With `COc1cc2c(N3CCN(C(=O)Nc4ccc(OC(C)C)cc4)CC3)ncnc2cc1OCCCN1CCCCC1.C[C@H](O)C(=O)O` [Form 1, 4-[6-methoxy-7-(3-piperidin-1-yl-propoxy)quinazolin-4-yl]piperazine-1-carboxylic acid(4-isopropoxyphenyl)-amide (L)-lactate Form 1] the solubility (aqueous buffer, thermodynamic from solid, in water, physiologically relevant pH's, read-out: solubility) was > 450 mg/mL, the solubility (pH 3.51, aqueous buffer, thermodynamic from solid, equilibrium aqueous, pH 3.51, read-out: Solubility) was 496 mg/mL and the solubility (pH 3.97, aqueous buffer, thermodynamic from solid, equilibrium aqueous, pH 3.97, read-out: Solubility) was 465 mg/mL. The solubility (pH 4.23, aqueous buffer, thermodynamic from solid, equilibrium aqueous, pH 4.23, read-out: Solubility) was 511 mg/mL and the solubility (pH 5.96, aqueous buffer, thermodynamic from solid, equilibrium aqueous, pH 5.96, read-out: Solubility) was 458 mg/mL.
With `COc1cc2c(N3CCN(C(=O)Nc4ccc(OC(C)C)cc4)CC3)ncnc2cc1OCCCN1CCCCC1.C[C@H](O)C(=O)O` [Form 4, 4-[6-methoxy-7-(3-piperidin-1-yl-propoxy)quinazolin-4-yl]piperazine-1-carboxylic acid(4-isopropoxyphenyl)-amide (L)-lactate Form 4] the solubility (in water, physiologically relevant pH's) was “greater than 325 mg/mL”, the solubility (pH 3.65, aqueous buffer, thermodynamic from solid, equilibrium aqueous, pH 3.65, read-out: Solubility) was 359 mg/mL and the solubility (pH 5.85, aqueous buffer, thermodynamic from solid, equilibrium aqueous, pH 5.85, read-out: Solubility) was 412 mg/mL. The solubility (pH 6.03, aqueous buffer, thermodynamic from solid, equilibrium aqueous, pH 6.03, read-out: Solubility) was 327 mg/mL.
Work on `COc1cc2c(N3CCN(C(=O)Nc4ccc(OC(C)C)cc4)CC3)ncnc2cc1OCCCN1CCCCC1` [compound of formula (II), 4-[6-methoxy-7-(3-piperidin-1-yl-propoxy)quinazolin-4-yl]piperazine-1-carboxylic acid(4-isopropoxyphenyl)-amide] yielded a solubility (in water, pH 6.95, read-out: solubility) of ~1.24 mg/mL.

From US20100273808A1 (Millennium Pharmaceticals, Inc., priority 2008, published 2010)
